Results on two compounds are retold here after US12162901B2, “N-acetylated sialic acids and related sialosides” (priority 2016, dated 2024).

One assay deals with A. ureafaciens sialidase. Kind of assay: Sialidase substrate specificity of Leg glycosides (HPLC/capillary electrophoresis), A. ureafaciens sialidase. The class given is biochemical, Arthrobacter ureafaciens. The conditions noted are these: pH 5.5.
For another assay, the target named is T1, V. cholerae sialidase (Vibrio cholerae serotype O1, UniProt P0C6E9).
T1 construct: purchased Roche
In words: Sialidase substrate specificity of Leg glycosides (HPLC/capillary electrophoresis), V. cholerae sialidase. Format: biochemical. Conditions: pH 5.5.

The target of the next assay is T2, BiNanH2 (Bifidobacterium longum, UniProt A0ACD7UU12).
T2 sequence (A0ACD7UU12 1-394): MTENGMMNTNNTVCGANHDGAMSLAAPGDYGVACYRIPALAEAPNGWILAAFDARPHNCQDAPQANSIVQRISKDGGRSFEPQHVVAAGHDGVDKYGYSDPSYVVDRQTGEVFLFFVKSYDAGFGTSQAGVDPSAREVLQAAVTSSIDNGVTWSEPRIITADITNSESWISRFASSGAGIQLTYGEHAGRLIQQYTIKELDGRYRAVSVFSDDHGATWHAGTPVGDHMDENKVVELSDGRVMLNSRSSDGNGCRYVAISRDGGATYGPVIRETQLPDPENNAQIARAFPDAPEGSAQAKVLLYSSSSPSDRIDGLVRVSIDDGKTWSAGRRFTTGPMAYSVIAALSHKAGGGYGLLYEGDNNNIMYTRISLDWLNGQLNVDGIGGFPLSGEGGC
In words: Sialidase substrate specificity of Leg glycosides (HPLC/capillary electrophoresis), BiNanH2. Format: biochemical, Bifidobacterium infantis. The conditions noted are these: 37° C., 16 hs, pH 5.0.

The target of another assay is SpNanC (Streptococcus pneumoniae, UniProt A0A0H2UQE4). Kind of assay: Sialidase substrate specificity of Leg glycosides (HPLC/capillary electrophoresis), SpNanC. Format: biochemical. The conditions noted are these: 37° C., 16 hs, pH 6.5.
Assay [1] has as its target T3, PmST1 (α2-3-sialidase activity) (Pasteurella multocida, UniProt Q15KI8).
T3 construct: made in house
In words: Kinetic studies for PmST1 α2-3-sialidase activity (HPLC). Format: biochemical. Conditions: 0.4 mM CMP. The protocol: Kinetic studies for PmST1 were performed in duplicates at 37° C. for 10 min. […] The reactions were stopped by adding 20 μL of pre-chilled ethanol. The mixtures were then centrifuged and the supernatants were analyzed by the HPLC system described above for sialidase substrate specificity studies assays. Apparent kinetic parameters were obtained by varying substrate concentrations from 0.1-40 mM (0.1, 0.2, 0.4, 1, 2, 4, 10, 20, and 40 mM) and fitting the data (the average values of duplicate assay results) into the Michaelis-Menten equation using Grafit 5.0.

Assay [2] has as its target T4, human cytosolic sialidase hNEU2 (Homo sapiens, UniProt Q9Y3R4).
T4 construct: made in house
In words: Sialidase substrate specificity of Leg glycosides (HPLC/capillary electrophoresis), hNEU2. Format: biochemical. Conditions: 37° C., 16 hs, pH 5.0.

In a further assay the target is T5, SpNanA (Streptococcus pneumoniae, UniProt P62575).
T5 construct: made in house
Kind of assay: Sialidase substrate specificity of Leg glycosides (HPLC/capillary electrophoresis), SpNanA. Format: biochemical. The conditions noted are these: 37° C., 16 hs, pH 6.0.

The target of assay [3] is C. perfringens sialidase (CpNanH) (Clostridium perfringens, UniProt P10481). The class given is biochemical. The conditions noted are these: 37° C., 16 hs, pH 5.0.
Another assay concerns the target T6, SpNanB (Streptococcus pneumoniae serotype 4, UniProt Q54727, E68D/K536E/K577E/N393D/S59P).
T6 construct: made in house
In words: Sialidase substrate specificity of Leg glycosides (HPLC/capillary electrophoresis), SpNanB. The class given is biochemical. The conditions noted are these: 37° C., 16 hs, pH 6.0.

Another assay relates to human CD22-Fc/Siglec-2. In words: Feeding of free sialic acids to BJA-B K20 cells, probing with human CD22-Fc, flow cytometry. The class given is cell-based. The conditions noted are these: 3 mM, 3 days of feeding. As to the method:
Cell Culture and Sugar Supplementation.
Flow Cytometry. Cells were washed with PBS and incubated with 10 μg/mL of PToV probes in PBS with 1% BSA and 10 mM EDTA for 30 minutes on ice. Subsequently, cells were washed with PBS and incubated with PE goat anti-human IgG antibody for 30 minutes on ice. After an additional washing step, the cells were analyzed by FACSCalibur (BD).
After 3 days of feeding, BJA-B K20 cells were probed with human CD22-Fc/Siglec-2 to detect ligands (FIG. 7). […] However, when the cells were grown in the presence of Neu5Ac9NAc, the expression of the CD22 ligand was minimal (FIG. 7C). […] This supports previous observations that human CD22-Fc recognizes α2-6-linked sialosides with Neu5Ac or N-glycolylneuraminic acid (Neu5Gc) as the preferred naturally existing sialic acid form and 9-O-acetyl modification on sialic acid blocks the binding.

For assay [4], the system named is BJA-B K20 cells. In words: Feeding of free sialic acids to BJA-B K20 cells, PToV probes, flow cytometry. The conditions noted are these: 1 mM free sialic acid, three days of feeding. Format: cell-based, human.
The test system of the next assay is influenza C virus. Conditions: background statement; cited from earlier work.
The subject of assay [5] is BJA-B K20 cells. In words: Feeding of free sialic acids to BJA-B K20 cells, DMB derivatization and HPLC of membrane sialic acids. The conditions noted are these: 1 mM for 3 days; sialic acids released with Vibrio cholerae neuraminidase.

T4 sequence (Q9Y3R4 whole entry): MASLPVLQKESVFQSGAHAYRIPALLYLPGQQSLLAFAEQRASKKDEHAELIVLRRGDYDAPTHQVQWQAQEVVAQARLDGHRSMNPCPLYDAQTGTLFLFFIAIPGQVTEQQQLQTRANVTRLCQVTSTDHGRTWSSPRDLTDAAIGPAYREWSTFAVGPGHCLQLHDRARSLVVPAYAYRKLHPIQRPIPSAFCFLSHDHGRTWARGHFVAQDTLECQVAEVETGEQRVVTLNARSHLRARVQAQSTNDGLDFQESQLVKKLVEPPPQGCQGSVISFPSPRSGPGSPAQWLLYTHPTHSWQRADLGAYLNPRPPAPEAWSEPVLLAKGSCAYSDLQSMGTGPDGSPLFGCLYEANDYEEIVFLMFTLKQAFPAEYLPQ

As to `CC(=O)N[C@@H]1C(O)C[C@](OC2C(O)[C@H](Oc3ccc([N+](=O)[O-])cc3)OC(CO)[C@@H]2O)(C(=O)O)OC1[C@H](NC(C)=O)[C@@H](C)O` (stereo partly drawn) [3-19, Leg5,7Ac2α2-3GalβpNP], the “activity of A. ureafaciens sialidase for the compound” value in the assay with A. ureafaciens sialidase is “did not show activity”. Moreover, the “activity of V. cholerae sialidase for the compound” value at V. cholerae sialidase was “did not show activity”. Moreover, the “activity of BiNanH2 for the compound” value on BiNanH2 is reported as “did not show activity”. Also, on SpNanC, the “activity of SpNanC for the compound” value is reported as “did not show activity”. In addition, the “α2-3-sialidase activity of PmST1, fold less efficient than for Neu5Acα2-3GalβpNP” value in assay [1] is “about 30 fold”. In addition, in assay [2], the “activity of hNEU2 for the compound” value is listed as “did not show activity”. At SpNanA, the “activity of SpNanA for the compound” value is “did not show activity”. In addition, the “activity of C. perfringens sialidase (CpNanH) for the compound” value in [3] is reported as “did not show activity”. Moreover, the “activity of SpNanB for the compound” value on SpNanB is given as “did not show activity”.

For `CC(=O)NC[C@@H](O)[C@@H](O)[C@@H]1OC(O)(C(=O)O)C[C@H](O)[C@H]1NC(C)=O` (stereo partly drawn) [Neu5Ac9NAc, 5,9-Diacetamido-3,5,9-Trideoxy-D-glycero-D-galacto-2-nonulopyranosylonic Acid], in the assay with human CD22-Fc/Siglec-2, the “expression of CD22 ligand on fed cells” value is listed as “minimal”. Besides, the “cell surface incorporation detected with PToV probe” value with BJA-B K20 cells [4] is listed as “detected on the cell surface”. Further, the “binding to influenza C virus and fate under hemagglutinin-esterase” value with influenza C virus is reported as “mimic Neu5,9Ac2 in binding to influenza C virus without being destroyed by esterase activity”. Moreover, the “incorporation on the cell membrane (DMB-HPLC)” value in the assay with BJA-B K20 cells [5] was “showed incorporation”.
